Measurements from US10238667B2, “Vitamin D receptor/SMAD genomic circuit gates fibrotic response” (Salk Institute for Biological Studies, priority 2013, dated 2019).

Tests used:
Assay type in all cases: cell-based, human
[1] = test system: SMAD3; test: ChIP-qPCR time course of SMAD3 binding at COL1A1 regulatory region #1 in LX-2 cells
Description: FIGS. 14A-14D. VDR/SMAD Genomic Circuit. […] Data represents the mean±SEM of at least three independent experiments performed in triplicate. Asterisks denote statistically significant differences compared to calcipotriol-induced VDR occupancy or TGFβ1-induced SMAD3 occupancy of corresponding time point (Student's unpaired t-test, *p<0.05, **p<0.01). […] Data represents the mean±SEM of at least three independent experiments performed in triplicate. (D) Model depicting proposed VDR/SMAD genomic circuit controlling pro-fibrogenic responses in HSCs.
Cells were then harvested for ChIP assay. The experimental procedure for ChIP was as previously described (Barish et al., 2010). Briefly, after fixation, nuclei from LX-2 cells were isolated, lysed and sheared with a Diagenode Bioruptor to yield DNA fragment sizes of 200-1000 base pairs followed by immunoprecipitation using antibodies listed below: normal rabbit IgG (Santa Cruz, sc-2027), VDR (Santa Cruz, sc-1008), SMAD3 (Abcam, ab28379) and histone H3 (Abcam, ab1791). For ChIP-Re-ChIP, after first ChIP, the immunoprecipitated DNA-protein complex was eluted from beads using 10 mM DTT, diluted 100-fold then re-immunoprecipitated with a second antibody, re-ChIP.
Specifically, ChIP-qPCR was employed to monitor binding of VDR and SMAD3 to the cis-regulatory region of COL1A1 at multiple time points (0, 1, 2, 4, 6, 16 hours).

[2] = test system: LX-2 cells; test: TGFβ1-induced fibrotic gene expression (RT-qPCR, siRNA) in LX-2 cells
Experimental: FIGS. 4A-4C. VDR Signaling Suppresses TGFβ-induced Pro-Fibrotic Genes. (A) Heat map comparing 519 differentially expressed genes in freshly isolated rat HSCs (quiescent HSCs, Q-HSCs), activated HSCs (A-HSCs, 3 days culture on plastic) and cells cultures in the presence of 10 nM 1,25(OH)2D3 (A-HSCs+1,25(OH)2D3). Euclidean clustering of both rows and columns using log2 transformed microarray expression data, n=2 per treatment group. (B) Heat map of fold expression change of genes involved in fibrosis in primary rat HSCs treated with TGFβ1 (1 ng/ml) and TGFβ1 plus 1,25(OH)2D3 (100 nM) for 24 hours, n=2 per treatment group. […] Data represents the mean±SEM of at least three independent experiments performed in triplicate. Asterisks denote statistically significant differences (Student's unpaired t-test, *p<0.05, **p<0.01).
LX-2 cells, a generous gift from Professor Scott Friedman, Mount Sinai School of Medicine, New York, N.Y., were cultured as described previously (Xu et al., 2005). […] For luciferase assays, DNA transfections were performed using Fugene 6 (Roche) following the manufacturer's instructions. […] Quantitative PCR was performed in technical triplicates using SYBR Green reagent (Biorad). The relative standard curve method was used for quantitation (Biorad). Expression levels were calculated by normalization to either Gapdh (mouse) or U36B4 (human) quantities. […]

[3] = test system: SMAD3; test: ChIP-Seq signal intensity at VDR/SMAD3 co-occupied sites in LX-2 cells (SMAD3); conditions: TGFβ1 1 ng/ml ± calcipotriol 100 nM, 4 hours
Description: FIGS. 10A-10G. Genomic Antagonism between VDR and SMAD. […] The three co-occupied sites are designated as 1, 2 and 3. (D) and (F) ChIP-qPCR at COL1A1 regulatory region #1 co-bound by VDR and SMAD3 in LX-2 cells treated as above. (E) and (G) ChIP-qPCR at COL1A1 regulatory region #1 of control (siCNTL), VDR-specific (siVDR), or SMAD3-specific (siSMAD3) siRNA transfected LX-2 cells treated as above. Occupancy is expressed relative to input chromatin. Data represents the mean±SEM of at least three independent experiments performed in triplicate. Asterisks denote statistically significant differences (Student's t-test, *p<0.05, **p<0.01).
Cells were then harvested for ChIP assay. The experimental procedure for ChIP was as previously described (Barish et al., 2010). […]
The procedure was as previously described (Barish et al., 2010). Briefly, short DNA reads were aligned against the human hg18 reference genome (NCBI Build 36.1) using the Illumina Pipeline Suite v1.7. Reads were aligned using the Bowtie aligner allowing up to 2 mismatches in the read. […] The threshold for the number of tags that determine a valid peak was selected for a false discovery rate of <0.0001, as empirically determined by repeating the peak finding procedure using randomized tag positions. […]

C=C1/C(=C\C=C2/CCC[C@]3(C)[C@@H]([C@H](C)/C=C/[C@@H](O)C4CC4)CC[C@@H]23)C[C@@H](O)C[C@@H]1O [calcipotriol, 1α,24-(OH)2-24-cyclopropyl-D3]
SMAD3 recruitment reduced ([1]; after 4 hours, TGFβ1 + calcipotriol vs TGFβ1): 70% | time of maximum binding of SMAD3 post-TGFβ1 treatment ([1]; in the presence of calcipotriol 100 nM, TGFβ1 alone maximal at 4 hours): 1 h | fibrotic gene expression [2]: potently repressed | calcipotriol-mediated repression of TGFβ1 induced gene expression after loss of VDR ([2]; siVDR RNAi, Cal 100 nM, TGFβ1 1 ng/ml, 16 hours): abolished | TGFβ-induced recruitment of SMAD3 globally compromised [3]: ~1.5 fold
